Source: paper PMC8347092, “Betulin, a Newly Characterized Compound in Acacia auriculiformis Bark, Is a Multi-Target Protein Kinase Inhibitor” (Molecules, 2021)
Values joined by “and” are separate entries in the source; they are usually repeats but may differ in a detail not shown here. Equal entries are not always repeated. Structures can show the parent of a compound that is named as a salt.

Key:
[1] = system: K562S (doxorubicin-sensitive K562) chronic myelogenous leukemia cells; assay: MTS cell viability assay, K562S cells; type: cell-based, human; conditions: for IC50: Homo sapiens, K562, 48 h exposure, n = 3
Experimental: K562 (ATCC®, CCL-243, described here as K562S to indicate sensitivity to doxorubicin), a human chronic myelogenous leukemia cell line, was obtained from American Type Culture Collection (Manassas, VA, USA). A doxorubicin-resistant cell line (K562R, also known as K562/Adr) was kindly provided by the IRSET institute (Research Institute for Environmental and Occupational Health, INSERM, University of Rennes 1, France). The cells were maintained at 37 °C and 5% CO2 in Gibco™ 1640 Roswell Park Memorial Institute (RPMI-1640) medium containing 10% fetal bovine serum (FBS) (Life Technologies^TM, Thermo Fisher Scientific, Waltham, MA, USA).
(§1) Cell viability was evaluated with the MTS (3-(4,5-dimethylthiazol-2-yl)-5-(3-carboxymethoxyphenyl)-2-(4-sulfophenyl)-2H-tetrazolium) reduction kit, (CellTiter 96 Aqueous Non-Radioactive Cell Proliferation Assay, Promega, Fitchburg, WI, USA), according to the instructions of the manufacturer. […] Further details on experimental conditions used can be found in Delehouzé et al. 2017 [47].

[2] = target: CDK9/CyclinT (Homo sapiens, UniProt P50750); assay: ADP-Glo protein kinase assay, CDK9/CyclinT; type: biochemical; conditions: 10 µM ATP, normalized to DMSO control, mean n = 2
Experimental: (§2) Kinase enzymatic activities were assayed in 384-well plates using the ADP-Glo^TM assay kit, following the recommendations of the manufacturer (Promega, Madison, WI). Controls were performed in appropriate dilutions of dimethyl sulfoxide (DMSO). Kinase activities, measured in the presence of 10 µM ATP, are expressed as percentage of maximal activity, i.e., measured in the absence of inhibitor. In order to determine the half-maximal inhibitory concentration (IC50), the assays were performed in duplicate in the absence or presence of increasing doses of the tested compounds. Data were analyzed using GraphPad PRISM (GraphPad Software, San Diego, CA, USA) software to fit a sigmoïdal curve that allowed determination of the IC50 values. The experimental conditions used for measuring kinase activities are comprehensively described in Ibrahim et al.. Human recombinant ABL1 mutant (T315I) was purchased from Promega (Catalog # V5320) and tested following the recommendations of the manufacturer (Promega, Madison, WI, USA).

[3] = target: ABL1 (Homo sapiens, UniProt P00519); assay: ADP-Glo protein kinase assay, ABL1; type: biochemical; conditions: for % of kinase activity that remained, ABL1: 10 µM ATP, normalized to DMSO control, mean n = 2
Experimental: as §2, with “Kinase activities, measured in the presence of 10 µM ATP, are expressed as percentage of maximal activity, i.e., measured in the absence of inhibitor.” left out

[4] = cited from earlier work
[5] = target: Pim1 (Homo sapiens, UniProt P11309); assay: ADP-Glo protein kinase assay, Pim1; type: biochemical; conditions: for % of kinase activity that remained, Pim1: 10 µM ATP, normalized to DMSO control, mean n = 2
Experimental: as §2

[6] = target: CK1ε (Homo sapiens, UniProt P49674); assay: ADP-Glo protein kinase assay, CK1ε; type: biochemical; conditions: for % of kinase activity that remained, CK1ε: 10 µM ATP, normalized to DMSO control, mean n = 2
Experimental: as §2

[7] = ref ChemSpider database, Royal Society of Chemistry; cited from earlier work
[8] = target: VEGFR2 (Homo sapiens, UniProt P35968); assay: ADP-Glo protein kinase assay, VEGFR2; type: biochemical
Experimental: as §2

[9] = target: T1, JAK3 (Homo sapiens, UniProt P52333); assay: ADP-Glo protein kinase assay, JAK3; type: biochemical; conditions: for % of kinase activity that remained, JAK3: 10 µM ATP, normalized to DMSO control, mean n = 2
T1 sequence (P52333 1-1124): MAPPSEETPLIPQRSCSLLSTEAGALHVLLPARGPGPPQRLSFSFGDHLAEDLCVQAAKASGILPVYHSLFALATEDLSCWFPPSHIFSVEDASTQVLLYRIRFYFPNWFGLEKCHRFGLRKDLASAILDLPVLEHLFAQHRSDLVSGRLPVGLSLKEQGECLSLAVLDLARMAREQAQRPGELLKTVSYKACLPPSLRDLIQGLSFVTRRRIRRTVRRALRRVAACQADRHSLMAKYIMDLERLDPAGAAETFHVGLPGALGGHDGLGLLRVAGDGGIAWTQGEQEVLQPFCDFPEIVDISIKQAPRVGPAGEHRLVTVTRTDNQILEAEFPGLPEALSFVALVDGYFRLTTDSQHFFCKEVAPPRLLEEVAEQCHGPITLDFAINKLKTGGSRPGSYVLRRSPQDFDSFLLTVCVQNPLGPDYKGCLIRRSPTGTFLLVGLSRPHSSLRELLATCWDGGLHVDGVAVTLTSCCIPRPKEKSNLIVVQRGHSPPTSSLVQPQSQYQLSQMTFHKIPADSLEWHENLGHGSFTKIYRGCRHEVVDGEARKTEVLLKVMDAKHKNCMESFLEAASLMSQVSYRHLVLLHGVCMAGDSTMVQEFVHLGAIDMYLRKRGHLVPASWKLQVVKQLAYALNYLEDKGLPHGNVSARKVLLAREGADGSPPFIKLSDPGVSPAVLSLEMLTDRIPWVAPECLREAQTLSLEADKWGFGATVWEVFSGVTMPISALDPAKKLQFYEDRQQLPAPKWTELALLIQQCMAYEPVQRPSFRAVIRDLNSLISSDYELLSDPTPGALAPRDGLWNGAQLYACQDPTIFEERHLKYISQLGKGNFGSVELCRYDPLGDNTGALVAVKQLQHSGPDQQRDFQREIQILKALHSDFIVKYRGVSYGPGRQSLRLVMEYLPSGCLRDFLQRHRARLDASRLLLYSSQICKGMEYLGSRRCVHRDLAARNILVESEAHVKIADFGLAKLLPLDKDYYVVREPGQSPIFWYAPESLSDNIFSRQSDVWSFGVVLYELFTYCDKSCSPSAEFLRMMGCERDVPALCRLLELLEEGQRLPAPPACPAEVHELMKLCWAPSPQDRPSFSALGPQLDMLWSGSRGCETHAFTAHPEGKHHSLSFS
Experimental: as §2

[10] = target: GSK-3α (Homo sapiens, UniProt P49840); assay: ADP-Glo protein kinase assay, GSK-3α; type: biochemical
Experimental: as §2

[11] = target: GSK-3β (Homo sapiens, UniProt P49841); assay: ADP-Glo protein kinase assay, GSK-3β; type: biochemical; conditions: for % of kinase activity that remained, GSK-3β: 10 µM ATP, normalized to DMSO control, mean n = 2
Experimental: as §2

[12] = target: CDK5/p25 (Homo sapiens, UniProt Q00535); assay: ADP-Glo protein kinase assay, CDK5/p25; type: biochemical; conditions: 10 µM ATP, normalized to DMSO control, mean n = 2
Experimental: as §2

[13] = target: NEK6 (Homo sapiens, UniProt Q9HC98); assay: ADP-Glo protein kinase assay, NEK6; type: biochemical
Experimental: as §2

[14] = target: ABL1 mutant (T315I) (Homo sapiens, UniProt P00519, T315I); conditions: inhibitor at 1 µM; 10 µM ATP; compared with wild type ABL1
Experimental: Effect of the T315I ABL1 kinase domain mutation on the inhibition by betulin. We selected 1 µM
We measured inhibition of mutant and WT ABL1 kinase activities by betulin and by
imatinib, using the ADP-Glo luminescent assay. ATP concentration used in the kinase assays was 10 µM.
Data are mean (N=3, n=3) ± SEM expressed as % of residual kinase activity, normalized to the DMSO control.

[15] = system: phospho-ERK1/2 (Thr202/Tyr204); assay: Immunoblot of phospho-ERK1/2 in K562S cells; type: cell-based, human; conditions: 6 h treatment, ImageJ band quantification
Experimental: The concentration of DMSO in the culture medium was 1%. Cell lysates were prepared by sonication of the cells in homogenization buffer with 0.5% of nonidet P-40 non-ionic detergent (NP-40) as described previously. SDS-PAGE and immunoblotting were performed following standard procedures. Anti-α-tubulin antibody (clone B512, T5168, 1:5000) was purchased from Sigma Aldrich (St. Louis, MO, USA). The anti-phospho-p44/42 MAPK (#28733–1-AP, 1:2000) was purchased from Proteintech® (Rosemont, IL, USA). This rabbit polyclonal antibody detects p44 and p42 MAPK when doubly phosphorylated (at Thr202 and Tyr204 of p44 and at Thr185 and Tyr187 of p42 MAPK).

[16] = system: human peripheral blood lymphocytes (hPBLs); assay: MTS cell viability assay, human peripheral blood lymphocytes; type: cell-based; conditions: betulin ≤ 100 µM, 48 h, four healthy donors
Experimental: Peripheral blood mononuclear cells (PBMCs) were isolated by Ficoll gradient centrifugation from blood buffy coats of healthy donors, provided by the Etablissement Français du Sang (EFS). The research protocol was conducted under French legal guidelines. After separation of monocytes by 1 h adhesion step, non-adherent PBMCs (peripheral blood lymphocytes, PBL) were harvested. PBL were cultured in RPMI 1640 medium (Gibco, Life technologies, Carlsbad, CA, USA) supplemented with 10% decomplemented fetal bovine serum (CVFSVF00–01, Eurobio), penicillin (100 IU/mL), and streptomycin (100 μg/mL) (15140–122, Gibco). All cells were cultured at 37 °C with 5% CO2.
as §1

[17] = target: T2, Haspin (Homo sapiens, UniProt Q8TF76); assay: ADP-Glo protein kinase assay, Haspin; type: biochemical; conditions: 10 µM ATP, normalized to DMSO control, mean n = 2
T2 sequence (Q8TF76 1-798): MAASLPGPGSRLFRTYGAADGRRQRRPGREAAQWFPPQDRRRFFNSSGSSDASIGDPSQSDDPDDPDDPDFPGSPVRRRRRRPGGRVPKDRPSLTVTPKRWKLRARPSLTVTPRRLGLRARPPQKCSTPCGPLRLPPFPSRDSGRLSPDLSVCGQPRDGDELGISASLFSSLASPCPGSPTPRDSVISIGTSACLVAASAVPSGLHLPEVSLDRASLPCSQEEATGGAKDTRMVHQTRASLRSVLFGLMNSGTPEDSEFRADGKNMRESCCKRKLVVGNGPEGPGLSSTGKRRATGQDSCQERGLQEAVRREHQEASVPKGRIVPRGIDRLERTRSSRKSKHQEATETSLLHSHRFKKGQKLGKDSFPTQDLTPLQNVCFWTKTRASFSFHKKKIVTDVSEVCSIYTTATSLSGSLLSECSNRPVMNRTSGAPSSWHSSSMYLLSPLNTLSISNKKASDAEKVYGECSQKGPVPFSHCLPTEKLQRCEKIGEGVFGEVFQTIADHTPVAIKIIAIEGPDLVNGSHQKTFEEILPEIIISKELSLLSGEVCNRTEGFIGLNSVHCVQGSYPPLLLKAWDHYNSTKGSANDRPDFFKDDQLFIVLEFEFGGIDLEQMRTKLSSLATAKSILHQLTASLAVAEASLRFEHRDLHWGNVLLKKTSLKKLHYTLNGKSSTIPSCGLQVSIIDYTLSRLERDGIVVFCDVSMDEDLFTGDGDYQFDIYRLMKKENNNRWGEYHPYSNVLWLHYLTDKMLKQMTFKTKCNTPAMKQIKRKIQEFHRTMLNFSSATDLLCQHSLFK
Experimental: as §2

[18] = system: K562R (doxorubicin-resistant K562) chronic myelogenous leukemia cells; assay: MTS cell viability assay, K562R cells; type: cell-based; conditions: Homo sapiens, K-562R, 48 h exposure, n = 3
[19] = betulin purified from Acacia auriculiformis at 1 µg/mL
[20] = betulin purified from Acacia auriculiformis at 10 µg/mL

Pim1, sequence (P11309 whole entry): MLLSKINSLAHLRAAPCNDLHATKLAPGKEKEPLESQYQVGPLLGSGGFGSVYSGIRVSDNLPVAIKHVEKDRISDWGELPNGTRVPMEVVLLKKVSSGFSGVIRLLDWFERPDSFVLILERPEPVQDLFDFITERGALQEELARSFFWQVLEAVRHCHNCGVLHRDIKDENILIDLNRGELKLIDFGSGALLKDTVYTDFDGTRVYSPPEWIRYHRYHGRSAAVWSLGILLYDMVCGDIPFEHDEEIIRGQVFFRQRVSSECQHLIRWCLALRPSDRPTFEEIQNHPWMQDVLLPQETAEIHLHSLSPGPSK
GSK-3β, sequence (P49841 whole entry): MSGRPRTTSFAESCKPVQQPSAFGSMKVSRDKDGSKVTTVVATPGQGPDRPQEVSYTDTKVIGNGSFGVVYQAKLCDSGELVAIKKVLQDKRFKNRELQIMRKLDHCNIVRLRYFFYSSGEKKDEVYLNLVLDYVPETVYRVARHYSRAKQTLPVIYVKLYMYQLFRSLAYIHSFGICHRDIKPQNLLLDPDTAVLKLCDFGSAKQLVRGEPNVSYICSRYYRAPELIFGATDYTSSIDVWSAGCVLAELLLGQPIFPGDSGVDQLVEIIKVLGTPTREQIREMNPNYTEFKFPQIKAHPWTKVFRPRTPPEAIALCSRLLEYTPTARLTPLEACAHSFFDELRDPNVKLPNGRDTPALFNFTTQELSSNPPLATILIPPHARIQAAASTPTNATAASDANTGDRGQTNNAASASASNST
CK1ε, sequence (P49674 whole entry): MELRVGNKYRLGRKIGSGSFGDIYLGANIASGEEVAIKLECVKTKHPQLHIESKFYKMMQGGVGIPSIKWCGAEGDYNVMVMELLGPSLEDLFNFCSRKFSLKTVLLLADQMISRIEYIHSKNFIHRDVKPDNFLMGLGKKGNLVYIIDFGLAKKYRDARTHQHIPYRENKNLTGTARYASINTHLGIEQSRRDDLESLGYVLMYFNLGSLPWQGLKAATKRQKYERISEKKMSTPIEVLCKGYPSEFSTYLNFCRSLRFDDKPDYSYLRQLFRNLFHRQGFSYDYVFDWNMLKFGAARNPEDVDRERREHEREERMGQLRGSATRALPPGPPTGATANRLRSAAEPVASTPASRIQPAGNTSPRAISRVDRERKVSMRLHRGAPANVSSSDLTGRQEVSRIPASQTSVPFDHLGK
CDK9/CyclinT, sequence (P50750 whole entry): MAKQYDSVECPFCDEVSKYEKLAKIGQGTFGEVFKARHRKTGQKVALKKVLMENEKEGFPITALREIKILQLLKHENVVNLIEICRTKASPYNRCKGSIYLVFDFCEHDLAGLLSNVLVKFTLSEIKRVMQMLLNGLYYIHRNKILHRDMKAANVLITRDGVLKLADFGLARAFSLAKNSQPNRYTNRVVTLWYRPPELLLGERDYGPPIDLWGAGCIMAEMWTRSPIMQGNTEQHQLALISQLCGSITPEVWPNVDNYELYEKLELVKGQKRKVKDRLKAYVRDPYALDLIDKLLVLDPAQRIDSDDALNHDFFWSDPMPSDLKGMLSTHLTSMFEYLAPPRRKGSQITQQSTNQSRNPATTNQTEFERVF
CDK9/CyclinT, sequence (O60563 whole entry partner): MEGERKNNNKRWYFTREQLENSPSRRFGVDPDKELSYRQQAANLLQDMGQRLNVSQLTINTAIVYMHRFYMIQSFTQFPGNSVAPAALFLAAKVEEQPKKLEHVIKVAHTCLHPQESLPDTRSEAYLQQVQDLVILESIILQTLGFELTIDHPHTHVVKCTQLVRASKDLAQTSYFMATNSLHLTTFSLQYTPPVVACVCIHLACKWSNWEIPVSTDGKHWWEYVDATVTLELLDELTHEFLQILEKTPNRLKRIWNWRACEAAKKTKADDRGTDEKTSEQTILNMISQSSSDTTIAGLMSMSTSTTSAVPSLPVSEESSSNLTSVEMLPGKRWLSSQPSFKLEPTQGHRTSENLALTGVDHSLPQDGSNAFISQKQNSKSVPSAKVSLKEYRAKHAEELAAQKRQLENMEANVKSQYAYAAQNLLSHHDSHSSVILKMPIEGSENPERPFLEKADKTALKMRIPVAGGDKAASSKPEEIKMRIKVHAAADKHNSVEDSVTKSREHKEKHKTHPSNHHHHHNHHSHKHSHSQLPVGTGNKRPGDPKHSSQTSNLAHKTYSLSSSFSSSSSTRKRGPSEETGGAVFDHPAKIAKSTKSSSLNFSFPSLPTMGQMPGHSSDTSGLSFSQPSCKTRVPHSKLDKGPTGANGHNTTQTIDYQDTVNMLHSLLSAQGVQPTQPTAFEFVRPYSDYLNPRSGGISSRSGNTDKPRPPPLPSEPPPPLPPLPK
CDK5/p25, sequence (Q00535 whole entry): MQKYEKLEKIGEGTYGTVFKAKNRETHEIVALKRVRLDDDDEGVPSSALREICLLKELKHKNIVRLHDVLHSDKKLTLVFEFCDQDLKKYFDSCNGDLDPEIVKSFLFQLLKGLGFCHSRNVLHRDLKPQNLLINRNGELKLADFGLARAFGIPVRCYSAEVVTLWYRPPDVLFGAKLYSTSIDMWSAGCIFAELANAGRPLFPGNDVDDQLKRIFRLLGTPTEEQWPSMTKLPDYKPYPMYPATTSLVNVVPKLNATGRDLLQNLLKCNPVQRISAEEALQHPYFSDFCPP
CDK5/p25, sequence (Q15078 99-307 partner limits assumed): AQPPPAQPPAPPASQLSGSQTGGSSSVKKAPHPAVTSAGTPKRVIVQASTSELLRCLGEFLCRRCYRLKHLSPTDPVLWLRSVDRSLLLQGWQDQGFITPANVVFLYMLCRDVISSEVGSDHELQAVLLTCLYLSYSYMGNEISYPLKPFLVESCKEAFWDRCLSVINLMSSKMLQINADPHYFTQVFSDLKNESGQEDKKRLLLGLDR
NEK6, sequence (Q9HC98 whole entry): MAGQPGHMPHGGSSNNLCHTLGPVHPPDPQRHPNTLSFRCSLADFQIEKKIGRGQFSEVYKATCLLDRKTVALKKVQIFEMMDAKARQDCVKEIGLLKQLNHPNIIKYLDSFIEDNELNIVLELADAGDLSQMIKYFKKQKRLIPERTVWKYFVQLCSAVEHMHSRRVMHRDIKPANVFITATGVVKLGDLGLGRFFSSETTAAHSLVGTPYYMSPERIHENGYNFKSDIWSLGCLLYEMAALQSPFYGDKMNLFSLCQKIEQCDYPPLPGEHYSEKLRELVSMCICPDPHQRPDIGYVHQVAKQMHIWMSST
VEGFR2, sequence (P35968 20-1356): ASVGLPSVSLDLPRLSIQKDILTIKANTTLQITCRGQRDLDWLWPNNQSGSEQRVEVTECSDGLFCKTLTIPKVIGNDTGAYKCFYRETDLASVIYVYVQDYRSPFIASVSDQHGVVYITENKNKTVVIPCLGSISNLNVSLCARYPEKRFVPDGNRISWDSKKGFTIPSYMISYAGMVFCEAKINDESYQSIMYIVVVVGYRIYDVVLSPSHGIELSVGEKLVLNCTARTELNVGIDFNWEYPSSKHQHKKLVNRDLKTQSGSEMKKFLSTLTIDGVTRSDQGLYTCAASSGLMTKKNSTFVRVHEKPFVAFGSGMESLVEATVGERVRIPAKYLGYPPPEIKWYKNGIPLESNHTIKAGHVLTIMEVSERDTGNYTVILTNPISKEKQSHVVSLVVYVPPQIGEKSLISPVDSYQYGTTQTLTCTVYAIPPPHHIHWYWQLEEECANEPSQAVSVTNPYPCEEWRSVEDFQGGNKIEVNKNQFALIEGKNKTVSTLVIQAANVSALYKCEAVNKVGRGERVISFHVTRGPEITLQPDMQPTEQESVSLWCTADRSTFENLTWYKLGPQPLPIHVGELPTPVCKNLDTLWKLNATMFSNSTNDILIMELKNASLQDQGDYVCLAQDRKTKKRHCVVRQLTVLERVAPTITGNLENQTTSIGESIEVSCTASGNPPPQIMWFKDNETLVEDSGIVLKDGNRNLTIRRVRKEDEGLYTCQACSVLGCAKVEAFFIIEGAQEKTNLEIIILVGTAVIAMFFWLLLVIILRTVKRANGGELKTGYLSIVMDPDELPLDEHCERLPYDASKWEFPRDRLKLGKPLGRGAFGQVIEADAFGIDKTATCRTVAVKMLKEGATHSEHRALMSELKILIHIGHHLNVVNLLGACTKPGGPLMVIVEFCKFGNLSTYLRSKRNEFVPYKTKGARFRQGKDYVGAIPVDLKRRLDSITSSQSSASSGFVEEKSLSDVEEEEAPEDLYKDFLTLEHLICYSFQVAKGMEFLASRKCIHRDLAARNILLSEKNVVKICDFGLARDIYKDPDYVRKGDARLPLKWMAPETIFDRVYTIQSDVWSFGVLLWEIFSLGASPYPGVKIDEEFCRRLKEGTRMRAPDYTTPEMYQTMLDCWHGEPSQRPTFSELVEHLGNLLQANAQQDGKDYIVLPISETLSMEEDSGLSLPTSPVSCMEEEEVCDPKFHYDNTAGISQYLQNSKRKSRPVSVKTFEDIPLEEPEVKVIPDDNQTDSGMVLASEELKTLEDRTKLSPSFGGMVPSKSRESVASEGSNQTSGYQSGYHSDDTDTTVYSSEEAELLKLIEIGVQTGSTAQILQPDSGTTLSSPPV
GSK-3α, sequence (P49840 whole entry): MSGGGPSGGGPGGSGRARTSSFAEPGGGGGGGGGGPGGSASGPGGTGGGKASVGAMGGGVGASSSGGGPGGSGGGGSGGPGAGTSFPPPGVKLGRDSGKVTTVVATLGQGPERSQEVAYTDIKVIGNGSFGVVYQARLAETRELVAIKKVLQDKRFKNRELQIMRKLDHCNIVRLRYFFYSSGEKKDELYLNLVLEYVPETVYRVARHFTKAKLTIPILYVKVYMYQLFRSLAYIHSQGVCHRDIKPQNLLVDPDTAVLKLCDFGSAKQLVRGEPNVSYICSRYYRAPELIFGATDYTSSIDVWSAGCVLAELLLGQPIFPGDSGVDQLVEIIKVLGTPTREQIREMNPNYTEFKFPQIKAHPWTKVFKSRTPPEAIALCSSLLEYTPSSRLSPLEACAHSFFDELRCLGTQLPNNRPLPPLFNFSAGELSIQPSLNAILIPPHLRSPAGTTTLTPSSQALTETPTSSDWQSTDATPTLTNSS

Structure (SMILES): COc1cccc2c1C(=O)c1c(O)c3c(c(O)c1C2=O)C[C@@](O)(C(=O)CO)C[C@@H]3O[C@H]1C[C@H](N)[C@H](O)[C@H](C)O1 [Doxorubicin, reference compound]
- IC50 [1]: 590 nM

Structure (SMILES): C=C(C)[C@@H]1CC[C@]2(CO)CC[C@]3(C)[C@H](CC[C@@H]4[C@@]5(C)CC[C@H](O)C(C)(C)[C@@H]5CC[C@]43C)[C@@H]12 [Betulin, 3-lup-20(29)-ene-3β,28-diol]
- % of kinase activity that remained, CDK9/CyclinT [2, 19]: 88%
- % of kinase activity that remained, CDK9/CyclinT [2, 20]: 60%
- IC50 [3]: 930 nM
- inhibition of the ABL1 activity in ATP competition assay ([3]; 10 µM betulin, 100 µM ATP compared with 10 µM ATP): significantly decreased
- % of kinase activity that remained, ABL1 [3, 19]: 36%
- % of kinase activity that remained, ABL1 [3, 20]: 21%
- inhibition at 10 µg/mL ([3]; read-out: inhibition of kinase activity, ABL1): 79%
- solubility in water [4]: 0.08 μg/mL and 0.18 µM
- % of kinase activity that remained, Pim1 ([5]; betulin purified from Acacia auriculiformis at 1 µg/mL, ≥100 = no detectable inhibition): ≥100%
- % of kinase activity that remained, Pim1 [5, 20]: 90%
- inhibition at 10 µg/mL ([5]; read-out: inhibition of kinase activity, Pim1): 10%
- IC50 [6]: 2110 nM
- % of kinase activity that remained, CK1ε [6, 19]: 53%
- % of kinase activity that remained, CK1ε [6, 20]: 48%
- predicted Octanol-Water Partition Coefficient (LogP) [7]: 9.01
- IC50 [8]: 2450 nM
- IC50 [9]: 1080 nM
- % of kinase activity that remained, JAK3 [9, 19]: 28%
- % of kinase activity that remained, JAK3 [9, 20]: 25%
- IC50 [10]: 720 nM
- IC50 [11]: 1060 nM
- % of kinase activity that remained, GSK-3β [11, 19]: 38%
- % of kinase activity that remained, GSK-3β [11, 20]: 30%
- % of kinase activity that remained, CDK5/p25 [12, 19]: 94%
- % of kinase activity that remained, CDK5/p25 [12, 20]: 99%
- IC50 [13]: 3020 nM
- inhibition of the enzymatic activity of T315I mutant of ABL1 [14]: retains its capacity to inhibit
- %pERK/Tubulin ([15]; 50 µM): 71.3%
- %pERK/Tubulin ([15]; 100 µM): 48.3%
- viability of hPBLs [16]: did not induce a significant decrease
- IC50 [1]: 16500 nM
- effects on K562S cell viability when cells co-treated with z-VAD-fmk ([1]; betulin 1-50 µM with 20 µM z-VAD-fmk (pan-inhibitor of caspases), 48 h): not significantly altered
- % of kinase activity that remained, Haspin [17, 19]: 72%
- % of kinase activity that remained, Haspin [17, 20]: 91%
- IC50 [18]: 13500 nM

Structure (SMILES): Cc1ccc(NC(=O)c2ccc(CN3CCN(C)CC3)cc2)cc1Nc1nccc(-c2cccnc2)n1 [imatinib mesylate, reference compound]
- %pERK/Tubulin ([15]; 20 µM): 1.5%
